The values that follow come from ChEMBL document CHEMBL1151567, “Synthesis and anti HIV-1 activity of new thiadiazepindioxides” (Bioorg Med Chem Lett, 1995).

Where only a bound is given, the exact number is not on record here.

Assay [1] has as its system C8166. Kind of assay: Antiviral activity was evaluated by inhibition of HIV-1 replication in CD4+ lymphoblastoid cell line infected with HIV/IIIB strain. Format: functional, cell-based. The following applies: Homo sapiens.
The subject of assay [2] is C8166. Kind of assay: Cytotoxic activity was evaluated in CD4+ lymphoblastoid cell line. Particulars: Homo sapiens. Format: functional.
Assay [3] deals with C8166. Kind of assay: Ratio of CC50 to that of IC50 was determined. Format: functional.

`Cc1cc2c(cc1Cl)Nc1ncccc1N(C)S2(=O)=O`: in the assay with C8166 [1], the IC50 was above 300 µM.

For the compound `Cc1cc2c(cc1C)N(C)S(=O)(=O)C1=CC=CN(C(C)C)C1=N2`, in the assay on C8166 [1], the IC50 came out at 0.6 µM. For the same compound, the half-maximal cytotoxic concentration (CC50) in the assay with C8166 [2] was above 30 µM. The Selectivity index with C8166 [3] is reported as above 50.

For `CCN1c2ccccc2S(=O)(=O)N(C)c2cccnc21`, the IC50 in the assay on C8166 [1] was above 300 µM.

For `CC(C)=CCN1Cc2cc(Cl)cc3[nH]c(=S)n(c23)C[C@@H]1C`, half-maximal inhibition with C8166 [1] (IC50) was put at 0.0015 µM. Also, the half-maximal cytotoxic concentration (CC50) in the assay on C8166 [2] was 34 µM. Further, the Selectivity index with C8166 [3] is listed as 22600.

With `CCN1C=CC=C2C1=Nc1ccccc1S(=O)(=O)N2C`, the IC50 with C8166 [1] came to 3.7 µM. The same compound returned a cytotoxic concentration (CC50) in the assay on C8166 [2] of 80 µM. In the assay with C8166 [3], the Selectivity index was determined as 22.

`CN1c2cccnc2Nc2ccccc2S1(=O)=O`: in the assay with C8166 [1], the IC50 was above 300 µM.

`Cc1cc2c(cc1C)N(C)S(=O)(=O)c1cccnc1N2` had a concentration for half-maximal inhibition (IC50) in the assay on C8166 [1] of 4 µM. Besides, the CC50 in the assay on C8166 [2] was above 125 µM. Further, the Selectivity index with C8166 [3] was above 31.

The compound `CCN1C=CC=C2C1=Nc1cc(Cl)c(C)cc1S(=O)(=O)N2C` came in with a half-inhibitory concentration (IC50) in the assay with C8166 [1] of 0.28 µM. Half-maximal cytotoxicity in the assay with C8166 [2] (CC50) was put at 12 µM. For the same compound, in the assay on C8166 [3], the Selectivity index was 42.

On to `CCN1C=CC=C2C1=Nc1cc(C)c(C)cc1N(C)S2(=O)=O`, for which inhibition in the assay with C8166 [1] was half-maximal at 0.33 µM (IC50). For the same compound, in the assay on C8166 [2], the 50% cytotoxic concentration (CC50) is above 30 µM. Further, in the assay with C8166 [3], the Selectivity index is reported as above 90.

`CCN1c2cc(Cl)c(C)cc2S(=O)(=O)N(C)c2cccnc21` returned an IC50 in the assay with C8166 [1] of 48 µM. In the assay with C8166 [2], the CC50 is above 60 µM. In addition, the Selectivity index in the assay on C8166 [3] is above 1.

`Cc1cc2c(cc1C)N(C)S(=O)(=O)c1cccnc1N2C(C)C`: the IC50 in the assay on C8166 [1] is 0.032 µM. The CC50 with C8166 [2] was above 60 µM. Also, the Selectivity index in the assay with C8166 [3] is recorded as above 1875.

As to `CCN1c2cc(C)c(C)cc2N(C)S(=O)(=O)c2cccnc21`, the IC50 with C8166 [1] stood at 0.04 µM. In the assay with C8166 [2], this compound displayed a CC50 of 150 µM. Besides, the Selectivity index in the assay with C8166 [3] came to 3750.

In the assay with C8166 [1], `CN1c2cccnc2Nc2ncccc2S1(=O)=O` yielded an IC50 of 7 µM. The compound also returned a CC50 with C8166 [2] above 125 µM. For the same compound, in the assay on C8166 [3], the Selectivity index is above 17.

`CCN1c2ncccc2N(C)S(=O)(=O)c2cccnc21` showed a concentration for half-maximal inhibition (IC50) in the assay on C8166 [1] above 300 µM. In the assay with C8166 [2], this compound showed a CC50 of 300 µM. The Selectivity index in the assay with C8166 [3] is below 1.

The compound `O=c1[nH]cnc2c1ncn2[C@H]1CC[C@@H](CO)O1` [DIDANOSINE] registered a 50% inhibitory concentration (IC50) with C8166 [1] of 1 µM. The compound further showed a 50% cytotoxic concentration (CC50) with C8166 [2] of 9000 µM. For the same compound, the Selectivity index in the assay on C8166 [3] is reported as 9000.

Compound `Cc1ccnc2c1NC(=O)c1cccnc1N2C1CC1` [NEVIRAPINE] displayed an IC50 in the assay on C8166 [1] of 0.04 µM. In the assay on C8166 [2], this compound displayed a CC50 of 321 µM. Besides, in the assay with C8166 [3], the Selectivity index was 8025.

With `Cc1cn([C@H]2C[C@H](N=[N+]=[N-])[C@@H](CO)O2)c(=O)[nH]c1=O` [ZIDOVUDINE], in the assay on C8166 [1], the midpoint of inhibition, the IC50, lay at 0.004 µM. Moreover, in the assay with C8166 [2], the midpoint of cytotoxicity, the CC50, lay at 1400 µM. The Selectivity index in the assay with C8166 [3] was found to be 350000.

For orientation: IC50 means the concentration needed to halve the response being measured. High values mean lower potency, low ones higher potency. The CC50 is the concentration at which the toxic effect on the cells reaches its halfway point. Read a high CC50 as better tolerance by the cells.
